# “And” between values parts separate entries of the source, which are not always exact repeats. Identical values can stand only once.
# What was measured:
# [1] = system: Lymphocyte Leukemia P-388; assay: Survival time of mice inoculated i.p. with Lymphocyte Leukemia P-388, treated days 5, 9 and 13 (Table A); format: in vivo, mouse
# [2] = system: DNA synthesis in L 1210 Cells; assay: Inhibition of DNA synthesis in L 1210 Cells; format: cell-based, mouse; conditions: Mus musculus, L1210, read-out: Leukemia L-1210 Cells Inhibition of Synthesis ED50, DNA
# [3] = system: RNA synthesis in L 1210 Cells; assay: Inhibition of RNA synthesis in L 1210 Cells; format: cell-based, mouse; conditions: Mus musculus, L1210, read-out: Leukemia L-1210 Cells Inhibition of Synthesis ED50, RNA
# mouse leukemia P388 = conditions: prior art, U.S. Pat. No. 4,301,277; cited from earlier work
# heart = conditions: some patients; cited from earlier work
# [4] = system: tumors (colon cancer, melanoma); conditions: cited from earlier work
# P-388 leukemia = assay: Mouse antitumor efficacy vs P-388 leukemia (Table B); conditions: mouse, in vivo
structure (smiles),measurement,setting,value
COc1cccc2c1C(=O)c1c(O)c3c(c(O)c1C2=O)C[C@@](O)(C(=O)CO)C[C@@H]3O[C@H]1C[C@H](N)[C@H](O)[C@H](C)O1 [doxorubicin],T/C vs mouse leukemia P388,[1]; at 50 mg/kg (thiomorpholino) or 8 mg/kg (doxorubicin),160%
same,dose required vs mouse leukemia P388,[1]; dose for the T/C quoted,8 mg/kg
same,"Survival Time, % T/C","[1]; mouse, in vivo",160%
same,IC50,[2],1500 nM
same,IC50,[3],580 nM
same,T/C value against P388,mouse leukemia P388,160%
same,heart damage in chronic treatment,heart,irreversible heart damage that can be fatal if continued
same,"response of patients with some serious tumor types (colon cancer, melanoma)",[4],"essentially no patients with some serious tumor types (colon cancer, melanoma) respond"
same,"Mouse Antitumor Efficacy at Optimum Dose, % T/C",P-388 leukemia,185%
same,Optimum Dose,P-388 leukemia,10 mg/kg
same,"Mouse Antitumor Efficacy at Optimum Dose, % T/C",P-388 leukemia; ip,252% and 257% and > 285%
